ChEMBL document CHEMBL3727350, “Agents and methods for treating ischemic and other diseases” (2014)
The source made the active and inactive calls. The rule behind the calls is not given here.

What follows are compounds tested against Transient receptor potential cation channel subfamily M member 7 (Mus musculus) (UniProt Q923J1) (assay: Inhibition of Tet-induced Flag-tagged mouse TRPM7 expressed in HEK293 cells assessed as inhibition of channel-mediated cell death in presence of Mg2+ incubated for 24 to 48 hrs by propidium iodide uptake assay). Conditions: not given.
Sequence of Transient receptor potential cation channel subfamily M member 7 (Mus musculus) (Q923J1 whole entry): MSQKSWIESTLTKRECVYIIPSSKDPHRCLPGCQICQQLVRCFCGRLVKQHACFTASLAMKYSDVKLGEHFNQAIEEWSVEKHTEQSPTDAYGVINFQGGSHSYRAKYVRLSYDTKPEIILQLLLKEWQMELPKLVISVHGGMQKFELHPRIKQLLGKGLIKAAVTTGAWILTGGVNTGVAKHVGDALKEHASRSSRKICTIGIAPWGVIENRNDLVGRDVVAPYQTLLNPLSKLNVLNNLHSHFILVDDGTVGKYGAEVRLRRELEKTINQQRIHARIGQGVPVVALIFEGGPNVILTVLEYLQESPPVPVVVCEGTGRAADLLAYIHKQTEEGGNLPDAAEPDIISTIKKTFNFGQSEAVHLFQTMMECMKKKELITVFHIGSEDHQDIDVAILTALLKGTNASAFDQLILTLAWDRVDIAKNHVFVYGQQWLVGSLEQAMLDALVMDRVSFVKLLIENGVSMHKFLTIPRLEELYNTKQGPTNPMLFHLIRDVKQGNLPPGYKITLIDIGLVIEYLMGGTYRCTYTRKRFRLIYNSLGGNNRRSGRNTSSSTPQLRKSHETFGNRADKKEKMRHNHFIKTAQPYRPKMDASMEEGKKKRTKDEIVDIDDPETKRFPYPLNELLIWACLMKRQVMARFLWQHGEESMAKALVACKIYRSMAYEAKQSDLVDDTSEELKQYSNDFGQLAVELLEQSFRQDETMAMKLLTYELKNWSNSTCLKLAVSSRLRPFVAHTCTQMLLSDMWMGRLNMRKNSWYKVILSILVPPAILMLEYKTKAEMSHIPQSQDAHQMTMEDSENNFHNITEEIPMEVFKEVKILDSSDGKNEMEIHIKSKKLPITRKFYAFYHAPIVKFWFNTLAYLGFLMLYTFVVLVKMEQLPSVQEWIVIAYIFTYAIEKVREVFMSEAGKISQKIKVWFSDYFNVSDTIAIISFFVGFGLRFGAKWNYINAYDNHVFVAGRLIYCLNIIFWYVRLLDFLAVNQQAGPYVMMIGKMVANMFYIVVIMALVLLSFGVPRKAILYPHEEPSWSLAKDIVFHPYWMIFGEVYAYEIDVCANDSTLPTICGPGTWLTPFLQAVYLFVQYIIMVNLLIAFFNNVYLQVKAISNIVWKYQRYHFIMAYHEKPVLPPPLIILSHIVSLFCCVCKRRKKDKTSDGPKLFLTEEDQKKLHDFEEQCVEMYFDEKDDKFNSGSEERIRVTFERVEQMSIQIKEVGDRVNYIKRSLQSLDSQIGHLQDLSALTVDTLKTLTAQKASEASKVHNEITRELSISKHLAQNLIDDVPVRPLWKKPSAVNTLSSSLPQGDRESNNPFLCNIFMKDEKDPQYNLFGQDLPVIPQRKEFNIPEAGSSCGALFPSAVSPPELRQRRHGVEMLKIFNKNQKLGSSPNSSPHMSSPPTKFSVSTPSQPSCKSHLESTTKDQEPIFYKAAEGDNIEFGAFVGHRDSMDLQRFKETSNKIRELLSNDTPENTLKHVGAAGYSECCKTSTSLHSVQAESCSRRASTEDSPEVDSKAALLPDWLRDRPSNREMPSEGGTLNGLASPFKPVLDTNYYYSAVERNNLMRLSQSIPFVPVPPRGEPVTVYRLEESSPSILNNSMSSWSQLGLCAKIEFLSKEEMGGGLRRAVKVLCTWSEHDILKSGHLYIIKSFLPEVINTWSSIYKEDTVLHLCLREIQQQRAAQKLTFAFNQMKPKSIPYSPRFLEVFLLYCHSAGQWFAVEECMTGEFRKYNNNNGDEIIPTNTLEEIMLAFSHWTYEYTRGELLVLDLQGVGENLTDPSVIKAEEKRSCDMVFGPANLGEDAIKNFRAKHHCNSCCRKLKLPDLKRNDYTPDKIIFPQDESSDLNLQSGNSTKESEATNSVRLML
Assay type: cell-based
Parameters: concentration or dose not given beside the values

With `CC[C@H]1CN2CCc3cc(OC)c(OC)cc3[C@@H]2C[C@@H]1C[C@H]1NCCc2cc(OC)c(OC)cc21` the inhibition was “Active”.
`CCn1cnc2c(Nc3cccc(Cl)c3)nc(N[C@@H]3CCCC[C@@H]3N)nc21` (relative stereo) was tested, and the inhibition was “Dose-dependent effect”.
For `COc1cc(/C=C/C(=O)N2CCC=CC2=O)cc(OC)c1OC`, the inhibition was “Dose-dependent effect”.
For `COc1cccc2c1C(=O)c1c(O)c3c(c(O)c1C2=O)C[C@@](O)(C(C)=O)C[C@@H]3O[C@H]1C[C@H](N)[C@H](O)[C@H](C)O1`, the inhibition was “Dose-dependent effect”.
For `COc1ccc(C[C@H]2NC[C@H](O)[C@H]2OC(C)=O)cc1`, the inhibition was “Dose-dependent effect”.
For `COc1ccc(C[C@H](N)C(=O)N[C@H]2[C@@H](O)[C@H](n3cnc4c(N(C)C)ncnc43)O[C@@H]2CO)cc1`, the inhibition was “Dose-dependent effect”.

Same assay, conditions: concentration not given here

Going from `COc1cc2c(cc1OC)C(c1cccc(C)c1)N(C(=O)c1sc3ccccc3c1Cl)CC2` (centres undefined) to `COc1cc2c(cc1OC)C(C(=O)c1sc3ccccc3c1Cl)=NCC2`, the inhibition rises from 40% to 80%.

Going from `CC(C)(C)NC(=O)CSc1nnc([C@H](Cc2ccccc2)NC(=O)OC(C)(C)C)o1` to `CS/C(=N/C(C)(C)C)Nc1ccccc1Cl`, the inhibition falls from 30% to under 30%.

Going from `Cc1c(-c2nc(-c3ccc(C(C)(C)C)cc3)no2)n(C)oc1=O` to `Cc1cc(-c2nc(-c3ccc(C(C)(C)C)cc3)no2)no1`, the inhibition rises from under 30% to 30%.

Compared with `CN(C)C=O.O=C(Nc1nnc(Sc2ccnc3cc(Cl)ccc23)s1)c1sc2ccccc2c1Cl`, `COc1ccc(CCNC(=O)c2sc3ccccc3c2Cl)cc1OC` is lower in inhibition: 80% for the first, under 30% for the second.

First: CCOC(=O)c1cc(Cl)ccc1OS(=O)(=O)c1ccc(NC(C)=O)cc1
Second: Cc1cc(C)cc(N/C=C(\C#N)S(=O)(=O)c2ccc(Cl)cc2)c1
The inhibition of the first is higher: 50% for the first, under 30% for the second.

Going from `CC(C)c1ccc(NC(=O)c2c(-c3ccccc3)nnc3ccccc23)cc1` to `O=C(Nc1ccc(Cl)cc1)Nc1ccccc1Oc1ccccc1`, the inhibition rises from under 30% to 50%.

Compared with `O=S1(=O)CC=C(S(=O)(=O)c2ccccc2)C1`, `NC(=O)C1CCN(CCS(=O)(=O)c2ccccc2)CC1` is higher in inhibition: under 30% for the first, 30% for the second.

`N#Cc1ccc(NS(=O)(=O)c2ccc3ccccc3c2)cc1` and `N#Cc1c(Cl)cccc1Oc1ccc(S(=O)(=O)Nc2ccccc2)cc1` are the same in inhibition: 40% for the first, 40% for the second.

Compared with `O=C1CC2Sc3ccccc3N=C2N1Cc1ccccn1` (centres undefined), `O=C1c2ccccc2C(=O)N1Cc1cccc(I)c1` is higher in inhibition: under 30% for the first, 40% for the second.

Compared with `CN(C)c1cccc(N(C)C)c1CNC(=O)c1ccc(Cl)cc1`, `CN(C)c1cccc(N(C)C)c1CNC(=O)Nc1ccccc1` is lower in inhibition: 80% for the first, under 30% for the second.

`COc1ccccc1C1CCN(Cc2c[nH]nc2-c2ccccc2)CC1` and `COc1ccccc1N1CCN(Cc2c[nH]nc2-c2ccccc2)CC1` are the same in inhibition: 80% for the first, 80% for the second.

Compared with `O=C(CSc1ssc(=S)c1-c1ccccc1)Nc1ccc(Cl)cc1`, `O=C(CSc1nccc(-c2cc(-c3ccc(Cl)cc3Cl)no2)n1)Nc1ccc(Cl)cc1` is higher in inhibition: under 30% for the first, 30% for the second.

Going from `COc1ccc2c(c1)CC/C(=C\c1ccc(Cl)cc1Cl)C2=O` to `CCOC(=O)c1ccc2c(c1)CC/C(=C\c1cccc(C(F)(F)F)c1)C2=O`, the inhibition falls from 60% to under 30%.

First: Cc1ccc(NC(=O)c2cccc3c2-c2ccccc2C3)cc1
Second: Cc1ccc(C(=O)Nc2ccc(Oc3ccc(C(C)(C)C)cc3)nc2)cc1
The inhibition of the first is lower: under 30% for the first, 70% for the second.

First: Cc1c(C)c(C)c(CN2CCOC(c3ccccc3)C2C)c(C)c1C (centres undefined)
Second: Cc1cc(OCc2c(C)c(C)c(C)c(C)c2C)c2c(Cl)ccc(C)c2n1
The inhibition of the first is lower: under 30% for the first, 40% for the second.

Compared with `CS/C(=N\c1ccc(C)cc1)Nc1ccc(C)cc1`, `Cc1ccc(Cn2nc(C(=O)O)cc2C)cc1` is lower in inhibition: 50% for the first, under 30% for the second.

`Cn1c(CN2C(=O)CSc3ccc(C(F)(F)F)cc32)nnc1SCC(=O)c1ccccc1` and `Cc1ccc(Cn2nc(C(=O)O/N=C(\N)c3cccc(C(F)(F)F)c3)cc2C)cc1` cannot be ordered by inhibition: under 30% for the first, under 30% for the second.

First: O=C(Sc1ccc(C(F)(F)F)cn1)c1ccc(Cl)cc1
Second: O=C(Nc1ccc(CN2CCS(=O)(=O)CC2)cc1)c1ccc(C(F)(F)F)cc1
The inhibition of the first is lower: under 30% for the first, 40% for the second.

Compared with `C/C(=N\Nc1c(C)cccc1Cl)c1ccc(Oc2ncc([N+](=O)[O-])s2)cc1`, `Cc1onc(-c2c(Cl)cccc2Cl)c1C(=O)Nc1cccc2nsnc12` is higher in inhibition: under 30% for the first, 30% for the second.

Compared with `CCOC(=O)c1nc(COc2ccccc2Cl)[nH]c(=O)c1C`, `CCOC(=O)c1cc(C)nn1C(=O)c1ccccc1Cl` is higher in inhibition: under 30% for the first, 30% for the second.

Compared with `N=C(NS(=O)(=O)c1cc(Cl)c(Oc2ccc([N+](=O)[O-])cc2Cl)c(Cl)c1)c1cccnc1`, `O=[N+]([O-])C1=Cc2c(ccc3ccccc23)OC1c1c(Cl)cccc1Cl` (centres undefined) is lower in inhibition: 70% for the first, 60% for the second.

Going from `COc1ccccc1N1CCN(Cc2c[nH]c3ccccc23)CC1` to `O=C(c1ccc(F)cc1)C1CCN(Cc2c[nH]c(-c3ccccc3)n2)CC1`, the inhibition falls from 70% to 30%.

Going from `CC1CCN(CC(=O)Nc2ccc(Cl)cc2C(=O)c2ccccc2Cl)CC1` to `O=C(NNC(=S)Nc1cc(Cl)ccc1Cl)c1ccccc1Cl`, the inhibition falls from 70% to under 30%.

First: Cc1cc(O)nc2c1c(C)nn2C
Second: COc1ccccc1NC(=O)Nc1nn(C)c2cccc(N(C)C)c12
The inhibition of the first is lower: under 30% for the first, 60% for the second.

First: NCCCNc1ccc2c3c(nn2CCNCCO)-c2c(O)ccc(O)c2C(=O)c13
Second: CCCCc1ccc(NC(=O)CSc2nc(-c3ccccc3)c(-c3ccccc3)o2)c(C)c1
The inhibition of the first is higher: 80% for the first, under 30% for the second.

Going from `O=C(O)CNC(=O)c1cccs1` to `O=C(/C(=N/Nc1ccc([N+](=O)[O-])cc1)C(=O)C(F)(F)F)c1cccs1`, the inhibition rises from under 30% to 40%.

Compared with `O=C(c1sc2ccccc2c1Cl)N1CCc2ccccc2C1`, `COc1ccc2c(c1)CCCN2C(=O)c1sc2ccccc2c1Cl` is lower in inhibition: 70% for the first, 60% for the second.

Compared with `COc1ccc(S(=O)(=O)N2CCC(O)(c3ccc(Cl)cc3)CC2)cc1OC`, `O=S(=O)(c1cccc(Cl)c1)N1CCC(O)(c2ccc(Cl)cc2)CC1` is higher in inhibition: 40% for the first, 70% for the second.

`COc1ccc(CCN2C(=O)CS/C2=N\c2ccc(C(C)(C)C)cc2)cc1OC` and `COc1ccc(C(=O)Nc2c(-c3ccc(Br)cc3)c(C(F)(F)F)nn2C)cc1OC` cannot be ordered by inhibition: under 30% for the first, under 30% for the second.

`CSc1sc(Br)c2c1C(=O)CCC2` and `CSc1scc2c1-c1n[nH]cc1CC2` cannot be ordered by inhibition: under 30% for the first, under 30% for the second.

First: c1ccc(CSc2nccc(-c3ccc4c(c3)CCO4)n2)cc1
Second: CN1c2ccccc2C(C)(C)C12C=Cc1c(ccc3ccccc13)O2 (centres undefined)
The inhibition of the first is higher: 70% for the first, under 30% for the second.

`FC(F)(F)c1cccc(OCc2ccc(-c3ncns3)cc2)c1` and `CC(C)Cc1ccc(C(C)c2nnc(-c3cccc([N+](=O)[O-])c3)o2)cc1` (centres undefined) are the same in inhibition: 50% for the first, 50% for the second.

`O=C1CC(c2ccccc2)CC(=O)N1c1ccc(Oc2ccc(Cl)cc2)cc1` and `O=C1/C(=C\c2cccs2)C(c2ccccc2)Oc2ccccc21` (centres undefined) cannot be ordered by inhibition: under 30% for the first, under 30% for the second.

Compared with `Cc1c(-c2nc(-c3ccc([N+](=O)[O-])o3)no2)n(C)oc1=O`, `Cc1noc(C)c1C(=O)OCc1ccc(-c2ccc(F)cc2F)o1` is higher in inhibition: under 30% for the first, 50% for the second.

Going from `C=CC/N=C1/NC(=O)C(CC(=O)Nc2ccc(Cl)cc2)S1` (centres undefined) to `O=C(N/C=C/c1cccs1)Nc1ccc(Cl)cc1`, the inhibition falls from 50% to under 30%.

Compared with `O=S(=O)(Cc1nc2ccc(Cl)cc2s1)CS(=O)(=O)Nc1nc2ccc(Cl)cc2s1`, `O=C(NC(=O)c1c(Cl)cccc1Cl)Nc1nc2cc(Cl)ccc2s1` is lower in inhibition: 70% for the first, 50% for the second.

First: C=C(C(=O)OC)C(O)c1ccc(Br)cc1 (centres undefined)
Second: O=C(Nc1ccc(F)c(Cl)c1)c1ccccc1O
The inhibition of the first is higher: 60% for the first, under 30% for the second.

First: N#CC(C#N)=CNc1cc(C(F)(F)F)ccc1N1CCc2ccccc2C1
Second: O=C(O)CSc1cc(C(F)(F)F)nc2ccccc12
The inhibition of the first is higher: 50% for the first, 30% for the second.

Compared with `N#Cc1cc(CCCCc2cc(C#N)c3ccccc3c2)cc2ccccc12`, `N#CCc1nn(-c2ccccc2)c(/N=C/c2cc(Cl)cc(Cl)c2O)c1C#N` is higher in inhibition: under 30% for the first, 60% for the second.

`C/C=N/N(c1ccccc1)c1cc(-c2ccc(OC)cc2)c(C#N)c(=O)[nH]1` and `O=c1[nH]c2c(Cl)c(Cl)ccc2c(O)c1-c1ccccc1` are the same in inhibition: 60% for the first, 60% for the second.

Going from `COc1cccc(NC(=O)Nc2nnc(C3CC3)s2)c1` to `Cc1cc(C(=O)NNC(=O)Nc2ccc(Cl)cc2)no1`, the inhibition rises from under 30% to 30%.

Compared with `COc1cc2c(cc1OC)C(c1cccc(C)c1)NCC2` (centres undefined), `COc1cc(C(=O)Oc2c(Cl)cc(Cl)cc2/C=N\c2cccc(C(F)(F)F)c2)cc(OC)c1OC` is lower in inhibition: 60% for the first, under 30% for the second.

Compared with `CN(/N=C/Cc1nnnn1-c1ccc(Cl)cc1)c1ccccc1`, `CSC1=N/C(=C\c2ccc(Cl)cc2)C(=O)N1Cc1ccco1` is higher in inhibition: under 30% for the first, 60% for the second.

`O=C1/C(=C\c2ccc(F)cc2)Sc2ccccc21` and `CSC1=N/C(=C\c2ccccc2O)C(=O)N1Cc1ccco1` cannot be ordered by inhibition: under 30% for the first, under 30% for the second.

Compared with `CCCCCc1c(COC)c2ccc(O)cc2oc1=O`, `Cc1onc(-c2c(Cl)cccc2Cl)c1C(=O)Oc1ccc2c(C(F)(F)F)cc(=O)oc2c1` is lower in inhibition: 50% for the first, under 30% for the second.

Compared with `CC12CCC(C(=O)N3CCSCC3)(OC1=O)C2(C)C` (centres undefined), `Cc1ccccc1NC(=O)NCc1cccs1` is higher in inhibition: under 30% for the first, 60% for the second.

`N#C/C(=N\Nc1ccc(Cl)c(Cl)c1)C(=O)C1CC1` and `O=C1NC(=S)S/C1=C/c1ccc(Cl)cc1Cl` are the same in inhibition: 40% for the first, 40% for the second.

Going from `Cc1onc(-c2c(Cl)cccc2Cl)c1C(=O)NCCc1csc2ccccc12` to `O=C(NNC(=S)Nc1cc(Cl)ccc1Cl)C(O)(c1ccccc1)c1ccccc1`, the inhibition rises from under 30% to 50%.

Going from `COc1cc(OC)cc(C(C)(C)OC(=O)NCCC(=O)O)c1` to `CCOC(=O)C(=CNNC(=O)c1cnn(-c2ccc([N+](=O)[O-])cc2)c1C(F)(F)F)C(=O)OCC`, the inhibition rises from under 30% to 90%.

First: CC(C)(C)[C@H](CO)/N=C/c1cccc(/C=N/[C@H](CO)C(C)(C)C)n1
Second: OC1(C(F)(F)F)CC(c2cccs2)=NO1 (centres undefined)
The inhibition of the first is lower: under 30% for the first, 30% for the second.

Compared with `O=C(Nc1ccc(N2CCC(C(F)(F)F)CC2)nc1)c1ccc(OC(F)(F)F)cc1`, `CCCC1c2ccsc2CCN1C(=S)Nc1ccc(Cl)cc1Cl` (centres undefined) is higher in inhibition: under 30% for the first, 40% for the second.

Compound `NC(=O)c1sc(-c2ccc(Cl)cc2)cc1NS(=O)(=O)c1ccc(Cl)cc1` has an inhibition of 50%.
